Tests used:
[1] = Antioxidant activity against cupric ion-induced lipid peroxidation in human LDL by TBA assay; assay type: functional
[2] = test system: Radical scavenging activity; assay: Antioxidant activity assessed as DPPH radical scavenging activity; assay type: functional

Row | SMILES | IC50 [1] [µM] | IC50 [2] [µM]
1 | OC[C@H]1O[C@@H](Oc2ccc(/C=C\c3cc(O)cc(O)c3)cc2O)[C@H](O)[C@@H](O)[C@@H]1O [Z-RESVERATROLOSIDE] | 150 | > 1000
2 | OC[C@H]1O[C@@H](Oc2cc(O)cc(/C=C/c3ccc(O)cc3)c2)[C@H](O)[C@@H](O)[C@@H]1O [PICEID] | 19.1 | 198
3 | OC[C@H]1O[C@@H](Oc2ccc(/C=C/c3cc(O)cc(O)c3)cc2O)[C@H](O)[C@@H](O)[C@@H]1O [E-RESVERATROLOSIDE] | 100 | 1000
4 | Oc1ccc(/C=C\c2cc(O)cc(O)c2)cc1 [CIS-RESVERATROL] | 18 | 95
5 | OC[C@H]1O[C@@H](Oc2cc(O)cc(/C=C\c3ccc(O)cc3)c2)[C@H](O)[C@@H](O)[C@@H]1O [Z-PICEID] | 16.8 | 142

Now those with a lower IC50 [1], led by results:

Row | IC50 [1] [µM] | IC50 [2] [µM] | SMILES
6 | 3 | 30.2 | OC[C@H]1O[C@@H](Oc2cc(O)cc(/C=C/c3ccc(O)c(O)c3)c2)[C@H](O)[C@@H](O)[C@@H]1O
7 | 2.5 | 29 | OC[C@H]1O[C@@H](Oc2cc(O)cc(/C=C\c3ccc(O)c(O)c3)c2)[C@H](O)[C@@H](O)[C@@H]1O [Z-ASTRINGIN]
8 | 4.7 | 10.1 | Cc1c(C)c2c(c(C)c1O)CCC(C)(C(=O)O)O2 (stereo not given) [TROLOX]
9 | 1.8 | 28 | Oc1cc(O)cc(/C=C/c2ccc(O)c(O)c2)c1 [PICEATANNOL]
10 | 2.4 | 72 | Oc1ccc(/C=C/c2cc(O)cc(O)c2)cc1 [RESVERATROL]

Source: ChEMBL document CHEMBL1150887, “Isolation, identification, and antioxidant activity of three stilbene glucosides newly extracted from vitis vinifera cell cultures” (J Nat Prod, 1998)
